According to ChEMBL document CHEMBL4507276 (2021):

Experiments:
Conditions in all cases: Compound concentration 1000.0 nM
[1] = system: Mast/stem cell growth factor receptor Kit (Homo sapiens), P10721 [L576P]
[2] = biological target: Cyclin-dependent kinase 14 (Homo sapiens) (UniProt O94921)
[3] = biological target: Hepatocyte growth factor receptor (Homo sapiens) (UniProt P08581)
[4] = biological target: NUAK family SNF1-like kinase 2 (Homo sapiens) (UniProt Q9H093)
[5] = biological target: Serine/threonine-protein kinase PRP4 homolog (Homo sapiens) (UniProt Q13523)
[6] = system: eIF-2-alpha kinase GCN2 (Homo sapiens), Q9P2K8 [S808G]
[7] = system: Receptor-type tyrosine-protein kinase FLT3 (Homo sapiens), P36888 [UNDEFINED MUTATION]
[8] = biological target: T1, Cytoplasmic tyrosine-protein kinase BMX (Homo sapiens) (UniProt P51813)
T1 sequence (whole entry): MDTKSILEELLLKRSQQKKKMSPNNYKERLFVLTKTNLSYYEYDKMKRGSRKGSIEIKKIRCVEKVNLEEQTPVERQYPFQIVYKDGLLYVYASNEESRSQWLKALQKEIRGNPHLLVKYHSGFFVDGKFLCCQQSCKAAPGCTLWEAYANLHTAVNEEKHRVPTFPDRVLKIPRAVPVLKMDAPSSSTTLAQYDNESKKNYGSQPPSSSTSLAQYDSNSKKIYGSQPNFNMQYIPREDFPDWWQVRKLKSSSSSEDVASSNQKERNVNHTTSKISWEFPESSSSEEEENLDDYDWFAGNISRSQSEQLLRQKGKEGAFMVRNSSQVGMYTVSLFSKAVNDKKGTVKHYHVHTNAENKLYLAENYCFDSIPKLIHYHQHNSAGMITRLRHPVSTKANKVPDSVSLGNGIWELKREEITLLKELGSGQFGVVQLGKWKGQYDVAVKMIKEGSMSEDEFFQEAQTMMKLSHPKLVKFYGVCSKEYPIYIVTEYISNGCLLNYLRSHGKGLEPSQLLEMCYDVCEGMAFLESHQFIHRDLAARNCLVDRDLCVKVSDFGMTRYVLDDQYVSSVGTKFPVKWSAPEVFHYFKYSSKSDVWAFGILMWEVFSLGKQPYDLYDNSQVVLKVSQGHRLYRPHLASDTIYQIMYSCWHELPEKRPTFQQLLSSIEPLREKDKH

[9] = biological target: Serine/threonine-protein kinase SBK1 (Homo sapiens) (UniProt Q52WX2)
[10] = biological target: T2, Protein kinase C iota type (Homo sapiens) (UniProt P41743)
T2 sequence (whole entry): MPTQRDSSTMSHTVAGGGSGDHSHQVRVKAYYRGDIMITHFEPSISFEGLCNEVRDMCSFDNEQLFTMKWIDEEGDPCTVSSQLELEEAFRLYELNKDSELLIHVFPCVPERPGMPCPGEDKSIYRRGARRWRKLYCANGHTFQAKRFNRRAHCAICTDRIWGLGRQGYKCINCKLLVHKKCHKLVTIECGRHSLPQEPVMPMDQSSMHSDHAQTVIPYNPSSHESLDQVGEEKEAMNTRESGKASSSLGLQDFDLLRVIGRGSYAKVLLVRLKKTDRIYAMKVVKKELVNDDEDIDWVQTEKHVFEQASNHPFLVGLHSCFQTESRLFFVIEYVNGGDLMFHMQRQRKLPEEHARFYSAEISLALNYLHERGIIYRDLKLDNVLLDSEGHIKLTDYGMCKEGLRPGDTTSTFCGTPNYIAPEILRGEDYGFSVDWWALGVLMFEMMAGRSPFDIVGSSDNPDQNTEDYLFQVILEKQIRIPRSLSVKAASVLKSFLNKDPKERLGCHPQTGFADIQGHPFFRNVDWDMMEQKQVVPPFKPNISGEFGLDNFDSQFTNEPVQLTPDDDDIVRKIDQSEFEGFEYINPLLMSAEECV

[11] = system: Receptor-type tyrosine-protein kinase FLT3 (Homo sapiens), P36888 [D835H]
[12] = biological target: Mitogen-activated protein kinase 15 (Homo sapiens) (UniProt Q8TD08)
[13] = biological target: Bone morphogenetic protein receptor type-1B (Homo sapiens) (UniProt O00238)
[14] = biological target: Mitogen-activated protein kinase 8 (Homo sapiens) (UniProt P45983)
[15] = biological target: Serine/threonine-protein kinase ULK3 (Homo sapiens) (UniProt Q6PHR2)
[16] = biological target: Casein kinase II subunit alpha (Homo sapiens) (UniProt P68400)
[17] = biological target: Mitogen-activated protein kinase kinase kinase kinase 1 (Homo sapiens) (UniProt Q92918)
[18] = biological target: Cyclin-dependent kinase 4 (Homo sapiens) (UniProt P11802)
[19] = biological target: T3, Activin receptor type-1 (Homo sapiens) (UniProt Q04771)
T3 sequence (whole entry): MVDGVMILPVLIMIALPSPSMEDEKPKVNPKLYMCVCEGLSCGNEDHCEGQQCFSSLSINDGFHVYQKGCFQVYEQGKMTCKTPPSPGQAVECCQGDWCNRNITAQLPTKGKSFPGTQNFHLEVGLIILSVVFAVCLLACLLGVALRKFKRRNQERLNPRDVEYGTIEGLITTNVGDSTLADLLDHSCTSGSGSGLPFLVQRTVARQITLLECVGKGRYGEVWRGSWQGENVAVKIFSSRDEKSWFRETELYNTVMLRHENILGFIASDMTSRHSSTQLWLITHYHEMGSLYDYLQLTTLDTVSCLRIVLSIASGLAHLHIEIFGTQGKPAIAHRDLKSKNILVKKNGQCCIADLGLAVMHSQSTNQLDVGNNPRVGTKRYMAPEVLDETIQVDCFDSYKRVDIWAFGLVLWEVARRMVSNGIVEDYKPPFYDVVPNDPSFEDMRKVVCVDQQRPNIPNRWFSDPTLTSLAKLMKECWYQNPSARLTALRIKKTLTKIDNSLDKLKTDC

[20] = system: Mast/stem cell growth factor receptor Kit (Homo sapiens), P10721 [V559D,V654A]
[21] = biological target: Insulin receptor-related protein (Homo sapiens) (UniProt P14616)

Measured: residual activity

Mast/stem cell growth factor receptor Kit (Homo sapiens), P10721 [V559D,V654A], sequence (P10721 whole entry V559D/V654A): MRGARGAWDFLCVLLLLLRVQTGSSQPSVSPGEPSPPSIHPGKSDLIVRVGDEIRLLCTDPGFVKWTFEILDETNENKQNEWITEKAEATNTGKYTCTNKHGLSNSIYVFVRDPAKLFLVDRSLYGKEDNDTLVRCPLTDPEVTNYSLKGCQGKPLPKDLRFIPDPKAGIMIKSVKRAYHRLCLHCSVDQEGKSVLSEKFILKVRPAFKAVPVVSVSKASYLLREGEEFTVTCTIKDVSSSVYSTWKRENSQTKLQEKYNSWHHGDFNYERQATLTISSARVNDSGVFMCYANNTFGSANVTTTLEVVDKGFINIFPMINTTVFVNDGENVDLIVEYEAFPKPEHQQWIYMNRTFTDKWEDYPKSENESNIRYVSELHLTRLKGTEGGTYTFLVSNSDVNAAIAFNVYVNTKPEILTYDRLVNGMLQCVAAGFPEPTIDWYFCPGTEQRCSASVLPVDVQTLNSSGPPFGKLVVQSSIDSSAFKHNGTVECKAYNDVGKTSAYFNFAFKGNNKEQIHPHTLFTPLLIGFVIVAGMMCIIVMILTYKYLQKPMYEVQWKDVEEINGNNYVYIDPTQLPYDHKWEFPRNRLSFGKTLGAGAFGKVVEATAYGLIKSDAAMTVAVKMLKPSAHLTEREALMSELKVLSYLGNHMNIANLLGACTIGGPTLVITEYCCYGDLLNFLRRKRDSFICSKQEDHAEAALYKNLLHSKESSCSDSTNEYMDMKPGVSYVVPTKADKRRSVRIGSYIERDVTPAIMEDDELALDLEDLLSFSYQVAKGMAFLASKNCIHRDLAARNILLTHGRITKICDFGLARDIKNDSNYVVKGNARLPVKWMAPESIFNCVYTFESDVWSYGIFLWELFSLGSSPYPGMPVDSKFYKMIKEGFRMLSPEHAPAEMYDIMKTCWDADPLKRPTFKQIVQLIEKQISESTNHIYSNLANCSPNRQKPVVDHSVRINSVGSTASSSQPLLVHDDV
Hepatocyte growth factor receptor (Homo sapiens), sequence (P08581 whole entry): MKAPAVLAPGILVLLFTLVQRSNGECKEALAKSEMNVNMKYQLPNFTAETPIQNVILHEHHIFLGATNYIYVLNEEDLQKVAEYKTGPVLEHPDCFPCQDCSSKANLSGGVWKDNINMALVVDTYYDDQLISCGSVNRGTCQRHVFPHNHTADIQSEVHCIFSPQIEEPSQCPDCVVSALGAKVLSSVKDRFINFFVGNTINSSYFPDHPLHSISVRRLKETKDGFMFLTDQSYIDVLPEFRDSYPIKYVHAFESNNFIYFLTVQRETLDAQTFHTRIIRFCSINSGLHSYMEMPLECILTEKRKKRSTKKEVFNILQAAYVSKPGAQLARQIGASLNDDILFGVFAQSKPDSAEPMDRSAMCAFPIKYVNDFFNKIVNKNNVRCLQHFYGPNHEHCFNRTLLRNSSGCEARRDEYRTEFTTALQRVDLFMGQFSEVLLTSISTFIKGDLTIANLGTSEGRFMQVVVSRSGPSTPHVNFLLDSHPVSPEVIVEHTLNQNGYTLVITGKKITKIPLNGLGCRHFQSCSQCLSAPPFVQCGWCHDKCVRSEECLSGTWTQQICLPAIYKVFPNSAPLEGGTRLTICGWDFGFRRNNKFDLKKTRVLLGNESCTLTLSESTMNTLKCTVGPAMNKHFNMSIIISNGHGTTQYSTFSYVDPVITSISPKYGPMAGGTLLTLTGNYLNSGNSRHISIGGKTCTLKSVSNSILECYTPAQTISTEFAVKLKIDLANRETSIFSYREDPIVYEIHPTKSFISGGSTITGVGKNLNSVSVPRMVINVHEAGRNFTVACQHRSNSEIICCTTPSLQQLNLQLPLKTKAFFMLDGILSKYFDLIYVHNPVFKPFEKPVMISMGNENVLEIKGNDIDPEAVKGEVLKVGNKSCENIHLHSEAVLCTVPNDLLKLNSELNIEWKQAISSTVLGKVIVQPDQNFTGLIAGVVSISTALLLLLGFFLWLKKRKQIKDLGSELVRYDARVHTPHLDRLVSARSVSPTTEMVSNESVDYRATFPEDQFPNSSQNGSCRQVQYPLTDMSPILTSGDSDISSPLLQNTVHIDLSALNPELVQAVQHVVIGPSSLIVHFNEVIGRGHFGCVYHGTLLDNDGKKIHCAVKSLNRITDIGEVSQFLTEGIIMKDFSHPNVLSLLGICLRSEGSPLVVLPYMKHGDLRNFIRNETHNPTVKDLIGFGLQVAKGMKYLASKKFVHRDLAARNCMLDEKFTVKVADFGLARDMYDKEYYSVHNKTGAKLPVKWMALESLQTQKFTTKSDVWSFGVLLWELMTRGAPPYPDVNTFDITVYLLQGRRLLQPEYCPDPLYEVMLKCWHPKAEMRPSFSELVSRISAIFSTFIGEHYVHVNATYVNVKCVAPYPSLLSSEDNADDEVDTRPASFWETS
Bone morphogenetic protein receptor type-1B (Homo sapiens), sequence (O00238 whole entry): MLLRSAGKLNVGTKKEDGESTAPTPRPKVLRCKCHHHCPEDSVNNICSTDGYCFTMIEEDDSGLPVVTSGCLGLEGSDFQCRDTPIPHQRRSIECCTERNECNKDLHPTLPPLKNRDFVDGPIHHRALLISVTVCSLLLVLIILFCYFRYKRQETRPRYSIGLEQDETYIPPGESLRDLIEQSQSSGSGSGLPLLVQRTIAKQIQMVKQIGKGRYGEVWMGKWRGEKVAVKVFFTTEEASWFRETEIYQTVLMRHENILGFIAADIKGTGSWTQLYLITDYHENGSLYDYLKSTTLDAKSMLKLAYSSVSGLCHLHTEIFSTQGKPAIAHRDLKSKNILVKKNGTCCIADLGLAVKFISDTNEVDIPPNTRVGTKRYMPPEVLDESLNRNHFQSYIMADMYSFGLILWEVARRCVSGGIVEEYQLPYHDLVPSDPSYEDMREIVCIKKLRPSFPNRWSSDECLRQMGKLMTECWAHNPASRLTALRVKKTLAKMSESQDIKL
Serine/threonine-protein kinase SBK1 (Homo sapiens), sequence (Q52WX2 whole entry): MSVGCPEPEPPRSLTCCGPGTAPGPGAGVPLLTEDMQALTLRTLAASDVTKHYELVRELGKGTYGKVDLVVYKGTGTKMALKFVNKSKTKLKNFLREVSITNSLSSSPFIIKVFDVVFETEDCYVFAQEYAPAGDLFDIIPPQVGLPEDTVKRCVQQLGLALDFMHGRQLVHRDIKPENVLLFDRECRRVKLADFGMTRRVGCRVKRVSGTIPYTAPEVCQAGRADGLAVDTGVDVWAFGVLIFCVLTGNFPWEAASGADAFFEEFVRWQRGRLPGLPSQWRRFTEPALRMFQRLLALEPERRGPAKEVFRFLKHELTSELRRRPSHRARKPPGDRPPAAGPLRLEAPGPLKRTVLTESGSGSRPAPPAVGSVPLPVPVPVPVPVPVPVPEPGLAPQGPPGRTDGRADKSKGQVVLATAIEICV
Mitogen-activated protein kinase 15 (Homo sapiens), sequence (Q8TD08 whole entry): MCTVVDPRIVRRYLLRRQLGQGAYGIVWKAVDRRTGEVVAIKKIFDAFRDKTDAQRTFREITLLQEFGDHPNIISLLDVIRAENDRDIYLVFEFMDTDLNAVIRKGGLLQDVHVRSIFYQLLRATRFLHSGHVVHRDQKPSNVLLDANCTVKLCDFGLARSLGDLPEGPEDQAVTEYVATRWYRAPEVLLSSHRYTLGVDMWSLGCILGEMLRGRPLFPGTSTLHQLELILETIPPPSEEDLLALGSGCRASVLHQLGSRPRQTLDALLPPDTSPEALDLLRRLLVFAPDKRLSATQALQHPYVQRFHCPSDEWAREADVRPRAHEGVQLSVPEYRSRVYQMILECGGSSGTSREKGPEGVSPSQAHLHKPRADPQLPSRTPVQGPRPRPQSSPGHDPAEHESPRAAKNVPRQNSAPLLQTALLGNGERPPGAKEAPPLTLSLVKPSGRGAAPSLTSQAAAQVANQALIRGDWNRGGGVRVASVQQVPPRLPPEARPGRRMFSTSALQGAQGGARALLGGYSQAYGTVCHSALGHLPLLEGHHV
Cyclin-dependent kinase 4 (Homo sapiens), sequence (P11802 whole entry): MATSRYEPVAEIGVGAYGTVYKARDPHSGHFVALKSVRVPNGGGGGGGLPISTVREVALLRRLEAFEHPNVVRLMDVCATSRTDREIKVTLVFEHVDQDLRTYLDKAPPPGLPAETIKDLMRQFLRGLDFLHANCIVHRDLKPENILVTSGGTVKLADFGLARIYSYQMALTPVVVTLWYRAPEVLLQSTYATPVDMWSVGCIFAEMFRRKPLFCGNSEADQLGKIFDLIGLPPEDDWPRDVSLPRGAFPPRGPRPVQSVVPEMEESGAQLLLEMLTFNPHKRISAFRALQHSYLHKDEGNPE
Casein kinase II subunit alpha (Homo sapiens), sequence (P68400 whole entry, looked up): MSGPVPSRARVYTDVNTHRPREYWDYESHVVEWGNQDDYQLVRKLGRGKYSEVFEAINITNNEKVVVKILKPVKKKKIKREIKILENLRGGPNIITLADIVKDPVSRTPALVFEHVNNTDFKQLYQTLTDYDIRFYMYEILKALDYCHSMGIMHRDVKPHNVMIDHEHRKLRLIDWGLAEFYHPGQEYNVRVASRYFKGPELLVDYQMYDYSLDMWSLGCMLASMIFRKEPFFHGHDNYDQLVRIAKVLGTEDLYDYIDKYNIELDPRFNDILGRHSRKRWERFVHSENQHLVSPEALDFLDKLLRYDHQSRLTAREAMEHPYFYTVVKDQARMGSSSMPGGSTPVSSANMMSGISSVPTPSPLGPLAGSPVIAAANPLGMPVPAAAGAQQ
Serine/threonine-protein kinase ULK3 (Homo sapiens), sequence (Q6PHR2 whole entry): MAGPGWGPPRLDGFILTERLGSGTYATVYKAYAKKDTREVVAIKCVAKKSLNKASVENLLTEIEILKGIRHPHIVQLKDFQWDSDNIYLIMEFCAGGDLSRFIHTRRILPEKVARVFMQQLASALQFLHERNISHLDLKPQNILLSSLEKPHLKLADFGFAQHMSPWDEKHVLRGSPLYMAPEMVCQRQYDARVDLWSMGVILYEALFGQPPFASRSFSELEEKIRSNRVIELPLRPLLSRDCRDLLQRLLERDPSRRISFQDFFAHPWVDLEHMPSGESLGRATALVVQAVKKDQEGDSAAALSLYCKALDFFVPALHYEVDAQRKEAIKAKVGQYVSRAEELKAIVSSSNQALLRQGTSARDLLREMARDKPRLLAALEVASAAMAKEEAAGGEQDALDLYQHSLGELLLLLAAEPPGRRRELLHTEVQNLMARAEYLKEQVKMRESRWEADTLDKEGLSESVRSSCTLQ

CN(C)C(=O)Cn1cc(-c2nc(C3(c4ccc(-c5cnc(N)nc5)cc4)CC3)no2)cn1 [BI 0153]
inactive: [1] 84% | [2] 100% | [3] 73% | [4] 87% | [5] 87% | [6] 83% | [7] 100% | [8] 88% | [9] 83% | [10] 100% | [11] 93% | [12] 96% | [13] 99% | [14] 78% | [15] 68% | [16] 73% | [17] 81% | [18] 100% | [19] 95% | [20] 100% | [21] 100%

CN(C)C(=O)Cn1cc(-c2nc([C@@](C)(c3ccc(-c4cnc(N)nc4)cc3)C3CC3)no2)cn1 [BI 665915]
inactive: [1] 63% | [2] 99% | [3] 100% | [4] 83% | [5] 86% | [6] 100% | [7] 100% | [8] 93% | [9] 87% | [10] 93% | [11] 86% | [12] 91% | [13] 76% | [14] 51% | [15] 86% | [16] 88% | [17] 100% | [18] 94% | [19] 84% | [20] 93% | [21] 99%
